Consider 32 compounds from patent US10947213B1 (Merck Patent GmbH, priority 2015, dated 2021).

Counter-ions that a name gives are not always drawn.

In the assay the target is T1, TLR7/NFKb HEK cells (Homo sapiens, UniProt Q9NYK1).
T1 construct: expressed in transfected cells; host or cells: HEK cells (TLR7/NFKb reporter line)
T1 sequence (Q9NYK1 27-1049): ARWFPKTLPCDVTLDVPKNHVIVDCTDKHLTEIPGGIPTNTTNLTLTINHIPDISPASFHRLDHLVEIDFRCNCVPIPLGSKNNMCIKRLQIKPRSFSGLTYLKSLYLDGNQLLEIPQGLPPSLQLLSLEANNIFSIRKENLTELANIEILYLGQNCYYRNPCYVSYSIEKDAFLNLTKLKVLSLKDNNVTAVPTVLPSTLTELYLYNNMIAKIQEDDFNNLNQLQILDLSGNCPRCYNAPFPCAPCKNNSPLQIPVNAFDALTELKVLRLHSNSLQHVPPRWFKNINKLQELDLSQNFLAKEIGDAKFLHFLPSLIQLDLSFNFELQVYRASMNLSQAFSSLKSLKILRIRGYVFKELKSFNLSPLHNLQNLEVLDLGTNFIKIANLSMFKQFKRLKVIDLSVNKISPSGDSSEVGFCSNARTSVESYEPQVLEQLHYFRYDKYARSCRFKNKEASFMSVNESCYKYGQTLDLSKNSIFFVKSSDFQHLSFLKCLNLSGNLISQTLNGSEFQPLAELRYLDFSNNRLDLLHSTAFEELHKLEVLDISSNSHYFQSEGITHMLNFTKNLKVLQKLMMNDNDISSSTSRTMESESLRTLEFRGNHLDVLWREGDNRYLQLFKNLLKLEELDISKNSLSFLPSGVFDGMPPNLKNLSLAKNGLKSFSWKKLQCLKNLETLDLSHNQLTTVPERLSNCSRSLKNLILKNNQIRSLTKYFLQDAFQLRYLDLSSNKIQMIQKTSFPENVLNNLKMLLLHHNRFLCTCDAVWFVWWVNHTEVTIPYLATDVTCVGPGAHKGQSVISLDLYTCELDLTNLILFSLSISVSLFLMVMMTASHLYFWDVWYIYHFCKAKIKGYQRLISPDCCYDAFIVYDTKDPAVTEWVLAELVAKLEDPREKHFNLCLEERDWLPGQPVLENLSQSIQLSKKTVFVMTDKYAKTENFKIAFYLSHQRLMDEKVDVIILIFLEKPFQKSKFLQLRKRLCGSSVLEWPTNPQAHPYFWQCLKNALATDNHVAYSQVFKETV
Kind of assay: HEK Cell Assay (TLR7/NFKb reporter, Steady-Glo luciferase readout). It is filed as cell-based. As to conditions: 30 min compound preincubation, then R*48 agonist for 5 hours, read-out: Potency. An outline of the steps:
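Steady-Glo luminescence after 5 h stimulation with R*48 agonist, following 30 min compound preincubation. Assay run in HEK cells carrying a TLR7/NFKb luciferase reporter, plated at 5000 cells/well and grown 24 h at 37° C (10% CO2) before treatment.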
With `C[C@H]1C[C@@H](N)CN(c2ccnc3nccnc23)C1` [Compound 10, (3R,5S)-5-methyl-1-(pyrido[2,3-b]pyrazin-8-yl)piperidin-3-amine], the IC50 was below 1 µM.
For `FC(F)(F)c1ccc2nccc(N3CCC(CNCCN4CCCCC4)CC3)c2c1` [Compound 387, (2-Piperidin-1-yl-ethyl)-[1-(6-trifluoromethyl-quinolin-4-yl)-piperidin-4-ylmethyl]-amine], the IC50 lay in the range of 1 to 10 µM.
Take `COc1ccc(N2C[C@@H](C)C[C@@H](NC(=O)CN(C)C)C2)c2nccnc12` [Compound 203, 2-(dimethylamino)-N-[(3R,5S)-1-(8-methoxyquinoxalin-5-yl)-5-methylpiperidin-3-yl]acetamide]: the IC50 lay within 1 to 10 µM.
For the compound `C[C@H]1C[C@@H](NC(=O)CN)CN(c2ccc(C#N)c3nccnc23)C1` [Compound 35, 2-amino-N-((3R,5S)-1-(8-cyanoquinoxalin-5-yl)-5-methylpiperidin-3-yl)acetamide hydrochloride], the IC50 is below 1 µM.
`COc1ccc(C(=O)NCC2CCN(c3ccnc4nccnc34)CC2)cc1OC` [Compound 391, 3,4-Dimethoxy-N-(1-pyrido[2,3-b]pyrazin-8-yl-piperidin-4-ylmethyl)-benzamide]: the IC50 is above 10 µM.
The result for `Cc1ncc(N2C[C@@H](C)C[C@@H](NC(=O)CC3CCN(C)C3)C2)c2cccnc12` (stereo partly drawn) [Compound 560, N-[(3R,5S)-5-Methyl-1-(8-methyl-[1,7]naphthyridin-5-yl)-piperidin-3-yl]-2-(1-methyl-pyrrolidin-3-yl)-acetamide] reads below 1 µM.
`C[C@H]1C[C@@H](NC(=O)C(N)C2CC2)CN(c2ccc(C(F)F)c3ncccc23)C1` (stereo partly drawn) [Compound 306, 2-amino-2-cyclopropyl-N-[(3R,5S)-1-[8-(difluoromethyl)quinolin-5-yl]-5-methylpiperidin-3-yl]acetamide]: the IC50 is below 1 µM.
As for `CC1CCCC(C)N1CCNC(=O)C1CCN(c2ccc(C#N)c3ncccc23)CC1` (centres unmarked) [Compound 414, 1-(8-Cyano-quinolin-5-yl)-piperidine-4-carboxylic Acid [2-(2,6-dimethyl-piperidin-1-yl)-ethyl]-amide], the IC50 is below 1 µM.
Regarding `CC(C)[C@H](N)C(=O)N[C@@H]1C[C@H](C)CN(c2ccnc3nccnc23)C1` [Compound 105, (2S)-2-amino-3-methyl-N-[(3R,5S)-5-methyl-1-[pyrido[2,3-b]pyrazin-8-yl]piperidin-3-yl]butanamide], the IC50 is below 1 µM.
For the compound `CC(C(=O)N[C@@H]1C[C@H](C)CN(c2ccc(C(F)F)c3ncccc23)C1)N1CC(F)(F)C1` (stereo partly drawn) [Compound 311, 2-(3,3-difluoroazetidin-1-yl)-N-[(3R,5S)-1-[8-(difluoromethyl)quinolin-5-yl]-5-methylpiperidin-3-yl]propanamide], the IC50 lay in the range of 1 to 10 µM.
Take `CC(C(=O)N[C@@H]1C[C@H](C)CN(c2ccc(C(F)F)c3ncccc23)C1)N1CC(N)C1` (stereo partly drawn) [Compound 305, 2-(3-aminoazetidin-1-yl)-N-[(3R,5S)-1-[8-(difluoromethyl)quinolin-5-yl]-5-methylpiperidin-3-yl]propanamide]: the IC50 was below 1 µM.
`C[C@H]1C[C@@H](NC(=O)CC(C)(C)O)CN(c2ccc(C(F)(F)F)c3ncccc23)C1` [Compound 485]: the IC50 was below 1 µM.
As for `O=C(CCCN1CCCCC1)N1CCN(c2ccnc3nccnc23)CC1` [Compound 400, 4-Piperidin-1-yl-1-(4-pyrido[2,3-b]pyrazin-8-yl-piperazin-1-yl)-butan-1-one], the IC50 was above 10 µM.
As to `C[C@H]1C[C@@H](NC(=O)CN(C)CCO)CN(c2ccc(C#N)c3nccnc23)C1` [Compound 144, N-[(3R,5S)-1-(8-cyanoquinoxalin-5-yl)-5-methylpiperidin-3-yl]-2-[(2-hydroxyethyl)(methyl)amino]acetamide], the IC50 was below 1 µM.
On to `CCN1CCC(NC(=O)C2CN(c3ccc(C#N)c4ncccc34)CC(F)(F)C2)CC1` (centres unmarked) [Compound 532, 1-(8-Cyano-quinolin-5-yl)-5,5-difluoro-piperidine-3-carboxylic Acid (1-ethyl-piperidin-4-yl)-amide], for which the IC50 is below 1 µM.
The value for `C[C@H]1C[C@@H](N)CN(c2ncc(C#N)c3ncncc23)C1` [Compound 458, 5-((3R,5S)-3-Amino-5-methyl-piperidin-1-yl)-pyrido[4,3-d]pyrimidine-8-carbonitrile hydrochloride] was above 10 µM.
As to `C[C@H]1C[C@@H](NC(=O)COC(C)(C)C)CN(c2ccnc3nccnc23)C1` [Compound 164, 2-(tert-butoxy)-N-[(3R,5S)-5-methyl-1-[pyrido[2,3-b]pyrazin-8-yl]piperidin-3-yl]acetamide], the IC50 was above 10 µM.
On to `CC(C)N1CCC(CC(=O)N[C@@H]2C[C@H](C(F)(F)F)CN(c3ccc(C#N)c4ncccc34)C2)CC1` [Compound 585, N-[(3R,5S)-1-(8-Cyano-quinolin-5-yl)-5-trifluoromethyl-piperidin-3-yl]-2-(1-isopropyl-piperidin-4-yl)-acetamide], for which the IC50 was below 1 µM.
Turning to `COc1cccc(NCC(=O)NCC2CCN(c3ccnc4nccnc34)CC2)c1` [Compound 404, 2-(3-Methoxy-phenylamino)-N-(1-pyrido[2,3-b]pyrazin-8-yl-piperidin-4-ylmethyl)-acetamide], the IC50 is above 10 µM.
Turning to `CCN(CC)C1CCN(CC2CCN(c3ccnc4ccccc34)CC2)CC1` [Compound 5, N,N-diethyl-1-((1-(quinolin-4-yl)piperidin-4-yl)methyl)piperidin-4-amine], the IC50 fell in the range of 1 to 10 µM.
In the case of `C[C@H]1C[C@@H](NC2CCOC2)CN(c2ccc(C#N)c3nccnc23)C1` (stereo partly drawn) [Compound 138, 8-[(3S,5R)-3-methyl-5-[(oxolan-3-yl)amino]piperidin-1-yl]quinoxaline-5-carbonitrile], the IC50 was below 1 µM.
`C[C@H]1C[C@@H](NC2CCN(C)C2=O)CN(c2ccc(C#N)c3nccnc23)C1` (single isomer, unassigned) [Compound 125]: the IC50 was below 1 µM.
Take `Cc1ncc(N2C[C@@H](C)C[C@@H](NC(=O)[C@@H](N)C3CC3)C2)c2cccnc12` [Compound 562, (S)-2-Amino-2-cyclopropyl-N-[(3R,5S)-5-methyl-1-(8-methyl-[1,7]naphthyridin-5-yl)-piperidin-3-yl]-acetamide]: the IC50 is below 1 µM.
The result for `CCN(CC)CCNC(=O)C1CCN(c2ccnc3nccnc23)CC1` [Compound 379] reads 1 to 10 µM.
As for `C[C@H]1C[C@@H](NC(=O)CC2CN(C)C2)CN(c2ccc(C#N)c3nccnc23)C1` [Compound 359, N-[(3R,5S)-1-(8-cyanoquinoxalin-5-yl)-5-methylpiperidin-3-yl]-2-(1-methylazetidin-3-yl)acetamide], the IC50 is below 1 µM.
For the compound `CCN(CC)CCNC(=O)N1CCN(c2ccc(C#N)c3nccnc23)CC1` [Compound 453, 4-(8-Cyano-quinoxalin-5-yl)-piperazine-1-carboxylic acid (2-diethylamino-ethyl)-amide], the IC50 is below 1 µM.
Consider `CC(O)C(=O)N[C@@H]1C[C@H](C)CN(c2ccc(C(F)(F)F)c3ncccc23)C1` (stereo partly drawn) [Compound 278, 2-hydroxy-N-[(3R,5S)-5-methyl-1-[8-(trifluoromethyl)quinolin-5-yl]piperidin-3-yl]propanamide], for which the IC50 is below 1 µM.
As to `CCN(CC)CCNCC1CCN(c2ccc(C#N)c3ncccc23)CC1` [Compound 401, 5-{4-[(2-Diethylamino-ethylamino)-methyl]-piperidin-1-yl}-quinoline-8-carbonitrile], the IC50 is 1 to 10 µM.
The result for `CC(C)[C@H](O)C(=O)NC1CC(C(F)(F)F)CN(c2ccc(C#N)c3nccnc23)C1` (single isomer, unassigned) [Compound 88] reads below 1 µM; that for `C[C@H]1C[C@@H](NCC#N)CN(c2ccnc3nccnc23)C1` [Compound 39, 2-((3R,5S)-5-methyl-1-(pyrido[2,3-b]pyrazin-8-yl)piperidin-3-ylamino)acetonitrile hydrochloride], 1 to 10 µM; that for `C[C@H]1C[C@@H](NC(=O)CN2CCOCC2)CN(c2ccc(Cl)c3ncccc23)C1` [Compound 262, N-[(3R,5S)-1-(8-chloroquinolin-5-yl)-5-methylpiperidin-3-yl]-2-(morpholin-4-yl)acetamide], below 1 µM.
The result for `C[C@@H]1CN(c2ccc(C#N)c3nccnc23)C[C@H](CN2CCC(N3CCCC3)CC2)O1` [Compound 57, 8-((2R,6S)-2-methyl-6-((4-(pyrrolidin-1-yl)piperidin-1-yl)methyl)morpholino)quinoxaline-5-carbonitrile] reads below 1 µM.
